We go through one compound from ChEMBL document CHEMBL3739345, “Design and synthesis of potent and selective inhibitors of BRD7 and BRD9 bromodomains” (Medchemcomm, 2015).

Each structure is given as a SMILES string. Calls of active or inactive are those of the source. No cut-off for these calls is given here.

In assay [1] the target is Bromodomain-containing protein 2 (Homo sapiens) (UniProt P25440). Briefly: Binding affinity to human BRD2 at 10 uM by differential scanning fluorimetry.
The target in assay [2] is T1, Bromodomain-containing protein 9 (Homo sapiens, UniProt Q9H8M2).
T1 sequence (Q9H8M2 whole entry): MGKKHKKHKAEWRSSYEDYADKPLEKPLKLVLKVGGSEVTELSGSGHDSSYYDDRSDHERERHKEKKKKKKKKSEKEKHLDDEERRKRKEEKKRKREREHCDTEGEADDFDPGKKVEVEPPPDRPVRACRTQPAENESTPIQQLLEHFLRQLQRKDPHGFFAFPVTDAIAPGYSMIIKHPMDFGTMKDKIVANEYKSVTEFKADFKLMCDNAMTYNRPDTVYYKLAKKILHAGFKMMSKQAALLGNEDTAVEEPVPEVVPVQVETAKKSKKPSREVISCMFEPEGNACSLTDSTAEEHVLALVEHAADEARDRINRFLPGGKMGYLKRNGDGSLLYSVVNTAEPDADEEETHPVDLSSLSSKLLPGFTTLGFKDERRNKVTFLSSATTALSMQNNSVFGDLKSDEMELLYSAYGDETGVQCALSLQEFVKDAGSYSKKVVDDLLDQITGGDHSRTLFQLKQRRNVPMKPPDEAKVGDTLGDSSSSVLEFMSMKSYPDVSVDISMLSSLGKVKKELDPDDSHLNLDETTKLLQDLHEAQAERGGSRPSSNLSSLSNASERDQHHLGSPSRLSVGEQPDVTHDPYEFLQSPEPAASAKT
Briefly: Inhibition of human BRD9 by alpha screen assay. For orientation: Bead proximity is the source of the signal in Alpha formats.

Another assay addresses T2, Peregrin (Homo sapiens) (UniProt P55201).
T2 sequence (whole entry): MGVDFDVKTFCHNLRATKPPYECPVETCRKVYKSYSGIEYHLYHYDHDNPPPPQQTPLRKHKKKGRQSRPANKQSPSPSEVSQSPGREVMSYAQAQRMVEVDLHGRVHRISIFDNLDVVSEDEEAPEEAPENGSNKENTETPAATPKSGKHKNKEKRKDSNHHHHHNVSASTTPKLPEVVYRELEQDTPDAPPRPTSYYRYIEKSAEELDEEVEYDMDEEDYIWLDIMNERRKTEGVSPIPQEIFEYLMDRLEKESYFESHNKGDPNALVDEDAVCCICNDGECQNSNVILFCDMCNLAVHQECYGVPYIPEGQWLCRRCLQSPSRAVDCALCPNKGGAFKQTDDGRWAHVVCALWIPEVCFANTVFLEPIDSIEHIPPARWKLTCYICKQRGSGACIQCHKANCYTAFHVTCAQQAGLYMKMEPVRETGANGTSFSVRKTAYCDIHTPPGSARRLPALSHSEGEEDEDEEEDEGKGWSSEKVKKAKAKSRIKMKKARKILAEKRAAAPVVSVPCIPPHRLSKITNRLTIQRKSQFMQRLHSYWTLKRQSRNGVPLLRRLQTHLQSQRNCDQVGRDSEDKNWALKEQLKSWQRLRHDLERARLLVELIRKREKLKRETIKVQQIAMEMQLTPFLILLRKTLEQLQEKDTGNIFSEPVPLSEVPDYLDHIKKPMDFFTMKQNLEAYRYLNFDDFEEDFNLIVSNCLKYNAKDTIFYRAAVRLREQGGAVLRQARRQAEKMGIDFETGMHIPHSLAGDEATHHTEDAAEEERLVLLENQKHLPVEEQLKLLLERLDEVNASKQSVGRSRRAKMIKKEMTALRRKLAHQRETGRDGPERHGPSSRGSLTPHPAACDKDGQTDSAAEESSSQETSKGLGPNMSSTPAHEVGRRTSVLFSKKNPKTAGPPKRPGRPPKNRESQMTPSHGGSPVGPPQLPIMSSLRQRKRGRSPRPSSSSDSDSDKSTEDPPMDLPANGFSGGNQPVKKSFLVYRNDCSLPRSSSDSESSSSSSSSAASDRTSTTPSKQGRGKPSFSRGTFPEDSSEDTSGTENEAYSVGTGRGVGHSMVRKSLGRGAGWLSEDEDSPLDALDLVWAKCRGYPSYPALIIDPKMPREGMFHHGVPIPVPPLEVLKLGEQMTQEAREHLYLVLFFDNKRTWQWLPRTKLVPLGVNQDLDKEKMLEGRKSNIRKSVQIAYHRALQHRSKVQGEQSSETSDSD
Put plainly: Binding affinity to human BRPF1B assessed as change in melting temperature at 10 uM by differential scanning fluorimetry. (In general: Differential scanning fluorimetry follows unfolding on heating by fluorescence.)

Assay [3] addresses T3, Bromodomain-containing protein 7 (Homo sapiens, UniProt Q9NPI1).
T3 sequence (Q9NPI1 whole entry): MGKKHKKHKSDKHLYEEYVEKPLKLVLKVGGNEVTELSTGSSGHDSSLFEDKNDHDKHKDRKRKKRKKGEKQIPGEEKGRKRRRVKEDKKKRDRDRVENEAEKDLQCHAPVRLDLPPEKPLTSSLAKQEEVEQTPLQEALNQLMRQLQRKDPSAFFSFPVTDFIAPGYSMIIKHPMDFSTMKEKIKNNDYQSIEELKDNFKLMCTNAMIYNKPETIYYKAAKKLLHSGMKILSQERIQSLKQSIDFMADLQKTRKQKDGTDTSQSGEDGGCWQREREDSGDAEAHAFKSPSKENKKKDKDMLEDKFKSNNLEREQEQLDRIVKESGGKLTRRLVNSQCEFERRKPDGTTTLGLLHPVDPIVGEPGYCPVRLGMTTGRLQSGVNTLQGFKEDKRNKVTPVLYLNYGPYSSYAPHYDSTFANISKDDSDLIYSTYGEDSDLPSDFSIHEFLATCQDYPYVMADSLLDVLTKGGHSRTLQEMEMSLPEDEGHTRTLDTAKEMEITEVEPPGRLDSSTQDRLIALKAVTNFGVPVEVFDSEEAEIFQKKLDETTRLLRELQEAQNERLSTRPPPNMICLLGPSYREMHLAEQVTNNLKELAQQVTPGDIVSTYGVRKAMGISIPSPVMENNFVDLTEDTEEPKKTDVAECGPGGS
Briefly: Binding affinity to human BRD7 by isothermal titration calorimetry. On the technique in general: In ITC the heat of successive injections is recorded.

The target in assay [4] is T4, Bromodomain-containing protein 9 (Homo sapiens) (UniProt Q9H8M2).
T4 sequence (whole entry): T1 sequence (Q9H8M2 whole entry)
Put plainly: Binding affinity to human BRD9 assessed as change in melting temperature at 10 uM by differential scanning fluorimetry.

Sequence of Bromodomain-containing protein 2 (Homo sapiens) (P25440 whole entry, looked up): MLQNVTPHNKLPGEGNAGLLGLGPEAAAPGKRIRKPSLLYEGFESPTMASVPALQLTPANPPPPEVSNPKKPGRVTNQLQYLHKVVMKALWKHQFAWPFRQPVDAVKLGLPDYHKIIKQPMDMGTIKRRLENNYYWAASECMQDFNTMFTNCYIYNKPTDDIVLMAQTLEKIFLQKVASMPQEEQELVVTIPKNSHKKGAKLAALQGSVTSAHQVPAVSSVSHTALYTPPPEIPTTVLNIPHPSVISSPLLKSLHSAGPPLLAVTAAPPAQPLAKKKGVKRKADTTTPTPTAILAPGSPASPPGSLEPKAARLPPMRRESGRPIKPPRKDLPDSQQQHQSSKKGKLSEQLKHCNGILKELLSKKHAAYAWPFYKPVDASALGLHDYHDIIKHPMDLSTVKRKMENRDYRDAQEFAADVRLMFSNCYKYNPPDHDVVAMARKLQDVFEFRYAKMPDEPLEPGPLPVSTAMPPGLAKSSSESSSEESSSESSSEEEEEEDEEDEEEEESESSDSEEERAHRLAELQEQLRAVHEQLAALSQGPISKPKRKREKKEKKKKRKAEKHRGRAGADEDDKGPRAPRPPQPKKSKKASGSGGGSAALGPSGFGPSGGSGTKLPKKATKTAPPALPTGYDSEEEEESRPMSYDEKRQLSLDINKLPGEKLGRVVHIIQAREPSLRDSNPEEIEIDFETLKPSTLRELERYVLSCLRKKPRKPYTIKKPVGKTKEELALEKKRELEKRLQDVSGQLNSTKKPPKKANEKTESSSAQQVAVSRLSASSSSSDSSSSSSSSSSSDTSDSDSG

One may read the IC50 as the midpoint of a concentration-inhibition curve. Low values mean inhibition by little substance, high ones a need for much substance. Broadly, the ΔTm is the change in melting temperature against a reference sample. As a reminder, the Kd is the equilibrium constant for the complex coming apart. A lower Kd goes with a tighter complex. In the case of `CC(=O)c1cc(-c2cccc3nccn23)c2cc(N3CCOCC3)ccn12`, the outcome in assay [1] was Active. Besides, the IC50 in assay [2] is 0.126 µM. Further, the shift in melting temperature (ΔTm) at Peregrin (Homo sapiens) was 1.7 °C; in assay [4], 4.5 °C. In assay [3], this compound gave a Kd of 0.368 µM.
